Assay results published in US10294202B2, “Pyrrolidinones as herbicides” (FMC Corporation, priority 2013, dated 2019).

Legend:
barnyardgrass [1] = test: Test A pre-/postemergence herbicide test; format: in vivo, Echinochloa crus-galli
Procedure, shortened: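 Scoring was visual, relative to untreated controls, on a 0–100 scale after about 10 greenhouse days. Preemergence treatment used a directed soil spray over seeded loam/sand; postemergence treatment targeted one- to two-leaf plants of 2–10 cm.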

velvetleaf = test: Test C pre-/postemergence herbicide test; format: in vivo, Abutilon theophrasti
Procedure, shortened: (§1)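 Response scores range from 0, meaning no effect, to 100, meaning complete control, assigned visually by comparison with controls roughly two weeks (13 to 15 days) after spraying. Applications were made preemergence to seeded loam–sand soil and postemergence to 1- to 4-leaf plants.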

blackgrass = test: Test C pre-/postemergence herbicide test; format: in vivo, Alopecurus myosuroides
Procedure, shortened: as §1

foxtail, giant = test: Test C pre-/postemergence herbicide test; format: in vivo, Setaria faberii
Procedure, shortened: as §1

wheat (winter wheat) = test: Test C pre-/postemergence herbicide test; format: in vivo, Triticum aestivum
Procedure, shortened: as §1

pigweed = test: Test C pre-/postemergence herbicide test; format: in vivo, Amaranthus retroflexus
Procedure, shortened: as §1

oat, wild = test: Test C pre-/postemergence herbicide test; format: in vivo, Avena fatua
Source text: Seeds of plant species selected from blackgrass (Alopecurus myosuroides), ryegrass, Italian (Italian ryegrass, Lolium multiflorum), wheat (winter wheat, Triticum aestivum), galium (catchweed bedstraw, Galium aparine), corn (Zea mays), crabgrass, large (large crabgrass, Digitaria sanguinalis), foxtail, giant (giant foxtail, Setaria faberii), johnsongrass (Sorghum halepense), lambsquarters (Chenopodium album), morningglory (Ipomoea coccinea), nutsedge, yellow (yellow nutsedge, Cyperus esculentus), pigweed (Amaranthus retroflexus), ragweed (common ragweed, Ambrosia elatior), soybean (Glycine max), barnyardgrass (Echinochloa crus-galli), oilseed rape (Brassica napus), waterhemp (common waterhemp, Amaranthus rudis), kochia (Kochia scoparia), oat, wild (wild oat, Avena fatua), surinam grass (Brachiaria decumbens), foxtail, green (green foxtail, Setaria viridis), goosegrass (Eleusine indica), bromegrass, downy (downy bromegrass, Bromus tectorum), nightshade (eastern black nightshade, Solanum ptycanthum), cocklebur (common cocklebur, Xanthium strumarium), cupgrass, woolly (woolly cupgrass, Eriochloa villosa), bermudagrass (Cynodon dactylon), sunflower, (common oilseed sunflower, Helianthus annuus), Russian thistle (Salsola kali) and velvetleaf (Abutilon theophrasti) were planted into a blend of loam soil and sand and treated preemergence with test chemicals formulated in a non-phytotoxic solvent mixture which included a surfactant. At the same time, plants selected from these crop and weed species and also barley (winter barley, Hordeum vulgare), […]), chickweed (common chickweed, Stellaria media), deadnettle (henbit deadnettle, Lamium amplexicaule), and canarygrass (littleseed canarygrass, Phalaris minor) were planted in pots containing Redi-Earth® planting medium (Scotts Company, 14111 Scottslawn Road, Marysville, Ohio 43041) comprising spaghnum peat moss, vermiculite, wetting agent and starter nutrients and treated with postemergence applications of test chemicals formulated in the same manner. Plants ranged in height from 2 to 18 cm (1- to 4-leaf stage) for postemergence treatments. Treated plants and controls were maintained in a greenhouse for 13 to 15 days, after which time all species were compared to controls and visually evaluated. Plant response ratings, summarized in Table C, are based on a scale of 0 to 100 where 0 is no effect and 100 is complete control. A dash (-) response means no test result.

crabgrass, large = test: Test C pre-/postemergence herbicide test; format: in vivo, Digitaria sanguinalis
Procedure, shortened: as §1

galium = test: Test C pre-/postemergence herbicide test; format: in vivo, Galium aparine; settings: Preemergence
Procedure, shortened: as §1

soybean = test: Test C pre-/postemergence herbicide test; format: in vivo, Glycine max
Procedure, shortened: as §1

oilseed rape = test: Test C pre-/postemergence herbicide test; format: in vivo, Brassica napus; settings: Preemergence
Procedure, shortened: as §1

barnyardgrass [2] = test: Test C pre-/postemergence herbicide test; format: in vivo, Echinochloa crus-galli; settings: Preemergence
Procedure, shortened: as §1

[3] = Postemergence, 125 g ai/ha, 0 to 100 scale, 0 no effect, 100 complete control
[4] = Postemergence, 500 g ai/ha, 0 to 100 scale (0 no effect, 100 complete control)
[5] = Preemergence, 125 g ai/ha, visual rating on 0 to 100 scale (0 no effect, 100 complete control)
[6] = preemergence, 500 g ai/ha, 0 to 100 scale (0 no effect, 100 complete control)
[7] = Preemergence, 62 g ai/ha, scale 0 to 100
[8] = Preemergence, 125 g ai/ha, scale 0 to 100 (0 no effect, 100 complete control)
[9] = Preemergence, 31 g ai/ha, scale 0 to 100 (0 no effect, 100 complete control)
[10] = Preemergence, 250 g ai/ha, scale 0 to 100 (0 no effect, 100 complete control)
[11] = 125 g ai/ha, scale 0 to 100 (0 no effect, 100 complete control)
[12] = Postemergence, 31 g ai/ha, scale 0 (no effect) to 100 (complete control)
[13] = Postemergence, 62 g ai/ha, scale 0 to 100 (0 no effect, 100 complete control)
[14] = Postemergence, 125 g ai/ha, scale 0 to 100 (0 no effect, 100 complete control)
[15] = Postemergence, 250 g ai/ha, scale 0 to 100 (0 no effect, 100 complete control)
[16] = Preemergence, 62 g ai/ha, scale 0 to 100 (0 no effect, 100 complete control)
[17] = Preemergence, 125 g ai/ha, scale 0 to 100
[18] = 31 g ai/ha, scale 0 to 100, 0 is no effect and 100 is complete control
[19] = 62 g ai/ha, scale 0 to 100 (0 no effect, 100 complete control)
[20] = Preemergence, 31 g ai/ha, scale 0 to 100, 0 is no effect and 100 is complete control

**Q.** Which results are given for `O=C1NCC(c2ccc(Cl)c(Cl)c2)C1C(=O)Nc1ccccc1F` (racemic) [Compound 14]?
**A.** Plant response rating, Barnyardgrass (barnyardgrass [1]; [3]): 60; Plant response rating, Barnyardgrass (barnyardgrass [1]; [4]): 80; Barnyardgrass plant response rating (barnyardgrass [1]; [5]): 80; Plant response rating, Barnyardgrass (barnyardgrass [1]; [6]): 90; Plant response rating, Velvetleaf (velvetleaf; [7]): 0; Plant response rating, Velvetleaf (velvetleaf; [8]): 0; Plant response rating, Blackgrass (blackgrass; [7]): 0; Plant response rating, Blackgrass (blackgrass; [8]): 0; Blackgrass plant response rating (blackgrass; [9]): 0; Plant response rating, Blackgrass (blackgrass; [10]): 0; Plant response rating, Foxtail, Giant (foxtail, giant; [7]): 85; Plant response rating, Foxtail, Giant (foxtail, giant; [8]): 90; Foxtail, Giant plant response rating (foxtail, giant; [9]): 85; Plant response rating, Foxtail, Giant (foxtail, giant; [10]): 95; Plant response rating, Wheat (wheat (winter wheat); [7]): 10; Plant response rating, Wheat (wheat (winter wheat); [8]): 10; Plant response rating, Pigweed (pigweed; [7]): 0; Plant response rating, Pigweed (pigweed; [8]): 0; Plant response rating, Oat, Wild (oat, wild; [7]): 0; Plant response rating, Oat, Wild (oat, wild; [8]): 0; Plant response rating, Crabgrass, Large (crabgrass, large; [7]): 98; Plant response rating, Crabgrass, Large (crabgrass, large; [8]): 98; Crabgrass, Large plant response rating (crabgrass, large; [9]): 90; Plant response rating, Crabgrass, Large (crabgrass, large; [10]): 100; Plant response rating, Galium (galium; 62 g ai/ha, scale 0 to 100): 0; Plant response rating, Galium (galium; [11]): 70; Galium plant response rating (galium; 31 g ai/ha, scale 0 to 100 (0 no effect, 100 complete control)): 0; Plant response rating, Galium (galium; 250 g ai/ha, scale 0 to 100 (0 no effect, 100 complete control)): 85; Plant response rating, Soybean (soybean; [7]): 0; Plant response rating, Soybean (soybean; [8]): 0

**Q.** Which results are given for `O=C1NCC(c2cc(F)c(F)cc2F)C1C(=O)Nc1cccc(F)c1F` (stereo not shown) [Compound 50]?
**A.** Plant response rating, Barnyardgrass (barnyardgrass [1]; [3]): 80; Plant response rating, Barnyardgrass (barnyardgrass [1]; [4]): 80; Barnyardgrass plant response rating (barnyardgrass [1]; [5]): 30; Plant response rating, Barnyardgrass (barnyardgrass [1]; [6]): 90; Plant response rating, Velvetleaf (velvetleaf; [12]): 0; Plant response rating, Velvetleaf (velvetleaf; [13]): 15; Plant response rating, Velvetleaf (velvetleaf; [14]): 25; Plant response rating, Velvetleaf (velvetleaf; [15]): 45; Plant response rating, Blackgrass (blackgrass; [12]): 0; Plant response rating, Blackgrass (blackgrass; [13]): 0; Plant response rating, Blackgrass (blackgrass; [14]): 0; Plant response rating, Blackgrass (blackgrass; [15]): 0; Plant response rating, Foxtail, Giant (foxtail, giant; [12]): 0; Plant response rating, Foxtail, Giant (foxtail, giant; [13]): 5; Plant response rating, Foxtail, Giant (foxtail, giant; [14]): 5; Plant response rating, Foxtail, Giant (foxtail, giant; [15]): 10; Plant response rating, Wheat (wheat (winter wheat); [12]): 0; Plant response rating, Wheat (wheat (winter wheat); [13]): 0; Plant response rating, Wheat (wheat (winter wheat); [14]): 0; Plant response rating, Wheat (wheat (winter wheat); [15]): 0; Plant response rating, Pigweed (pigweed; [12]): 10; Plant response rating, Pigweed (pigweed; [13]): 10; Plant response rating, Pigweed (pigweed; [14]): 20; Plant response rating, Pigweed (pigweed; [15]): 20; Plant response rating, Oat, Wild (oat, wild; [12]): 0; Plant response rating, Oat, Wild (oat, wild; [13]): 0; Plant response rating, Oat, Wild (oat, wild; [14]): 0; Plant response rating, Oat, Wild (oat, wild; [15]): 0; Plant response rating, Crabgrass, Large (crabgrass, large; [12]): 10; Plant response rating, Crabgrass, Large (crabgrass, large; [13]): 25; Plant response rating, Crabgrass, Large (crabgrass, large; [14]): 40; Plant response rating, Crabgrass, Large (crabgrass, large; [15]): 75; Plant response rating, Soybean (soybean; [12]): 10; Plant response rating, Soybean (soybean; [13]): 15; Plant response rating, Soybean (soybean; [14]): 15; Plant response rating, Soybean (soybean; [15]): 20

**Q.** For `O=C1NCC(c2cccc(C(F)(F)F)c2)C1C(=O)Nc1ccc(F)c(F)c1F` (stereo not shown) [Compound 345], which “Plant response rating, Barnyardgrass” value (barnyardgrass [1]; Postemergence, 125 g ai/ha, visual rating on 0 to 100 scale (0 no effect, 100 complete control), approx. 10 days) is on record?
**A.** 70

**Q.** And the “Plant response rating, Barnyardgrass” value (barnyardgrass [1]; [4])?
**A.** 90

**Q.** What about the “Plant response rating, Barnyardgrass” value (barnyardgrass [1]; Preemergence, 125 g ai/ha, 0 to 100 scale where 0 is no effect and 100 is complete control) of the same molecule?
**A.** 80

**Q.** What about the “Barnyardgrass plant response rating” value (barnyardgrass [1]; Preemergence, 500 g ai/ha, visual rating on 0 to 100 scale (0 no effect, 100 complete control)) of the same molecule?
**A.** 90

**Q.** What about the “Velvetleaf plant response rating” value (velvetleaf; [16]) of the same molecule?
**A.** 0

**Q.** And the “Plant response rating, Velvetleaf” value (velvetleaf; [17])?
**A.** 25

**Q.** What about the “Oilseed Rape plant response rating” value (oilseed rape; [18]) of the same molecule?
**A.** 50

**Q.** What about the “Oilseed Rape plant response rating” value (oilseed rape; [19]) of the same molecule?
**A.** 55

**Q.** What about the “Plant response rating, Oilseed Rape” value (oilseed rape; 125 g ai/ha, scale 0 to 100) of the same molecule?
**A.** 85

**Q.** What about the “Plant response rating (scale of 0 to 100), Oilseed Rape” value (oilseed rape; 250 g ai/ha) of the same molecule?
**A.** 85

**Q.** What about the “Blackgrass plant response rating” value (blackgrass; [20]) of the same molecule?
**A.** 50

**Q.** And the “Blackgrass plant response rating” value (blackgrass; [16])?
**A.** 50

**Q.** And the “Plant response rating, Blackgrass” value (blackgrass; [17])?
**A.** 90

**Q.** And the “Plant response rating (scale of 0 to 100), Blackgrass” value (blackgrass; Preemergence, 250 g ai/ha)?
**A.** 90

**Q.** What about the “Foxtail, Giant plant response rating” value (foxtail, giant; [20]) of the same molecule?
**A.** 85

**Q.** And the “Foxtail, Giant plant response rating” value (foxtail, giant; [16])?
**A.** 90

**Q.** What about the “Plant response rating, Foxtail, Giant” value (foxtail, giant; [17]) of the same molecule?
**A.** 95

**Q.** And the “Plant response rating (scale of 0 to 100), Foxtail, Giant” value (foxtail, giant; Preemergence, 250 g ai/ha)?
**A.** 98

**Q.** What about the “Wheat plant response rating” value (wheat (winter wheat); [16]) of the same molecule?
**A.** 10

**Q.** What about the “Plant response rating, Wheat” value (wheat (winter wheat); [17]) of the same molecule?
**A.** 70

**Q.** And the “Pigweed plant response rating” value (pigweed; [20])?
**A.** 30

**Q.** What about the “Pigweed plant response rating” value (pigweed; [16]) of the same molecule?
**A.** 30

**Q.** What about the “Plant response rating, Pigweed” value (pigweed; [17]) of the same molecule?
**A.** 65

**Q.** What about the “Crabgrass, Large plant response rating” value (crabgrass, large; [20]) of the same molecule?
**A.** 95

**Q.** What about the “Crabgrass, Large plant response rating” value (crabgrass, large; [16]) of the same molecule?
**A.** 98

**Q.** What about the “Plant response rating, Crabgrass, Large” value (crabgrass, large; [17]) of the same molecule?
**A.** 95

**Q.** And the “Plant response rating (scale of 0 to 100), Crabgrass, Large” value (crabgrass, large; Preemergence, 250 g ai/ha)?
**A.** 98

**Q.** And the “Galium plant response rating” value (galium; [18])?
**A.** 20

**Q.** What about the “Galium plant response rating” value (galium; [19]) of the same molecule?
**A.** 90

**Q.** What about the “Plant response rating, Galium” value (galium; 125 g ai/ha, scale 0 to 100) of the same molecule?
**A.** 90

**Q.** What about the “Plant response rating (scale of 0 to 100), Galium” value (galium; 250 g ai/ha) of the same molecule?
**A.** 85

**Q.** And the “Soybean plant response rating” value (soybean; [16])?
**A.** 0

**Q.** What about the “Plant response rating, Soybean” value (soybean; [17]) of the same molecule?
**A.** 5

**Q.** And the “Barnyardgrass plant response rating” value (barnyardgrass [2]; [18])?
**A.** 80

**Q.** And the “Barnyardgrass plant response rating” value (barnyardgrass [2]; [19])?
**A.** 95

**Q.** What about the “Plant response rating, Barnyardgrass” value (barnyardgrass [2]; [11]) of the same molecule?
**A.** 95

**Q.** What about the “Plant response rating (scale of 0 to 100; 0 is no effect, 100 is complete control), Barnyardgrass” value (barnyardgrass [2]; 250 g ai/ha) of the same molecule?
**A.** 95
